From PubChem BioAssay (NCI)
“And” between values parts separate entries of the source, which are not always exact repeats. Equal values may be shown once.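 Each compound was tested at five concentrations against cells in 96-well plates for 48 hours. At the GI50, growth is halved. Definition used: TGI = concentration required for complete inhibition of growth.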

Legend:
Assay in all cases: NCI tumour cell line growth inhibition, 48 h
[1] = system: U251 CNS
[2] = system: BT-549 breast
[3] = system: EKVX NSCLC
[4] = system: K-562 leukemia
[5] = system: CCRF-CEM leukemia
[6] = system: HCT-116 colon
[7] = system: SF-295 CNS
[8] = system: MCF7 breast
[9] = system: MDA-MB-231 breast
[10] = system: MALME-3M melanoma

COC(=O)C1OC(O[C@H]2CCC3(C)C(CCC4(C)C3CC=C3C5CC(C)(C)CCC5(C(=O)O)CC[C@]34C)C2(C)C)C(O)C(OC2OC(CO)C(O)C(O)C2O)C1O (some centres not stated)
GI50 [1]: 6.08 µM | TGI [1]: 10.9 µM | GI50 [2]: 6.93 µM | TGI [2]: 15 µM | GI50 [3]: 6.59 µM | TGI [3]: 12.9 µM | GI50 [4]: 8.17 µM | TGI [4]: 26.6 µM | GI50 [5]: 5.79 µM | TGI [5]: 13.1 µM | GI50 [6]: 6.39 µM | TGI [6]: 11.5 µM | GI50 [7]: 11.8 µM | TGI [7]: > 33.3 µM | GI50 [8]: 9.92 µM | TGI [8]: 26.4 µM | GI50 [9]: 7.28 µM | TGI [9]: 13.5 µM

COc1cc2ncn(-c3cc(OCc4ccccc4Cl)c(C(N)=O)s3)c2cc1OC
GI50 [1]: 0.224 µM | TGI [1]: 10.4 µM | GI50 [2]: 1.41 µM | TGI [2]: > 17 µM | GI50 [3]: 1.25 µM | TGI [3]: > 25 µM | GI50 [10]: > 25 µM | TGI [10]: > 25 µM | GI50 [4]: 0.114 µM | TGI [4]: > 25 µM | GI50 [5]: 0.0781 µM | TGI [5]: > 10.6 µM | GI50 [6]: 0.233 µM | TGI [6]: > 22.1 µM | GI50 [7]: 0.186 µM | TGI [7]: > 11.2 µM | GI50 [8]: 0.0885 µM | TGI [8]: > 25 µM | GI50 [9]: 0.247 µM | TGI [9]: 8.13 µM

CC(C)(C)OC(=O)NC(Cc1ccccc1)C(=O)OCN1C(=O)C2C3C=CC(C2C1=O)C1C2C(=O)N(COC(=O)C(Cc4ccccc4)NC(=O)OC(C)(C)C)C(=O)C2C31 (configuration not stated)
TGI [1]: > 100 µM | TGI [2]: 92.6 µM | TGI [3]: > 100 µM | TGI [10]: > 100 µM | TGI [4]: > 100 µM | TGI [5]: > 68.5 µM | TGI [6]: > 88.5 µM | TGI [7]: > 100 µM | TGI [8]: > 100 µM | TGI [9]: > 94.2 µM

COC1(C(=O)N2Cc3nc(Cl)nc(N[C@H](C)c4cc(N)cc(C(F)(F)F)c4)c3C2)CCOCC1
GI50 [1]: 14.4 µM | TGI [1]: 37.7 µM | GI50 [2]: 12.4 µM | TGI [2]: 28.2 µM | GI50 [3]: 14.1 µM | TGI [3]: > 100 µM | GI50 [10]: 17.3 µM | TGI [10]: 43 µM | GI50 [4]: 0.888 µM | TGI [4]: > 68.4 µM | GI50 [5]: 31.3 µM | TGI [5]: 99 µM | GI50 [6]: 15.2 µM | TGI [6]: 30.4 µM | GI50 [7]: 12.5 µM | TGI [7]: 26.2 µM | GI50 [8]: 17.5 µM | TGI [8]: 49.3 µM | GI50 [9]: 15.9 µM | TGI [9]: 31.3 µM

Cc1nn(-c2ccc(F)cc2)c2ncnc(Nc3ccc(NC(=O)Nc4ccc(Cl)c(C(F)(F)F)c4)cc3)c12
GI50 [1]: 1.49 µM | TGI [1]: 3.62 µM | GI50 [2]: 2.39 µM | TGI [2]: 8.48 µM | GI50 [3]: 2.78 µM | TGI [3]: 10.8 µM | GI50 [10]: 1.76 µM | TGI [10]: 4.21 µM | GI50 [4]: 1.75 µM | TGI [4]: > 100 µM | GI50 [5]: 1.57 µM | TGI [5]: 13.2 µM | GI50 [6]: 1.51 µM | TGI [6]: 5.07 µM | GI50 [7]: 2.25 µM | TGI [7]: 6.17 µM | GI50 [8]: 2.11 µM | TGI [8]: 6.67 µM | GI50 [9]: 2.03 µM | TGI [9]: 5.55 µM

Cc1cc2nc3c4cc(Cl)ccc4n(CCN(C)C)c3nc2cc1C
GI50 [1]: 1.43 µM | TGI [1]: 3.14 µM | GI50 [2]: 2.53 µM | TGI [2]: 8.19 µM | GI50 [3]: 2.45 µM | TGI [3]: 6.77 µM | GI50 [10]: 1.72 µM | TGI [10]: 3.33 µM | GI50 [4]: 1.36 µM | TGI [4]: 4.03 µM | GI50 [5]: 1.22 µM | TGI [5]: 4.63 µM | GI50 [6]: 0.7 µM | TGI [6]: 2.08 µM | GI50 [7]: 1.91 µM | TGI [7]: 3.79 µM | GI50 [8]: 1.06 µM | TGI [8]: 2.49 µM | GI50 [9]: 1.6 µM | TGI [9]: 4.81 µM

Clc1ccccc1C(c1ccccc1)(c1ccccc1)n1ccnc1
GI50 [1]: 2.48 µM | TGI [1]: 11.8 µM and 49.8 µM | GI50 [2]: 2.54 µM | TGI [2]: 6.87 µM and 20.6 µM | GI50 [3]: 2.41 µM | TGI [3]: 13.7 µM and 23.7 µM | GI50 [10]: 1.74 µM | TGI [10]: 7.24 µM and 16.9 µM | TGI [4]: > 42.1 µM | TGI [5]: 31.4 µM | GI50 [6]: 1.44 µM | TGI [6]: 3.35 µM and 23 µM | GI50 [7]: 1.94 µM | TGI [7]: 9.67 µM and 23.7 µM | GI50 [8]: 2.89 µM | TGI [8]: 11.8 µM and 24.7 µM | GI50 [9]: 2.13 µM | TGI [9]: 6.72 µM and 38.6 µM

CN(C)CC(=O)N1CCC(c2ccc(NC(=O)c3ncc(C#N)[nH]3)c(C3=CCCCC3)c2)CC1
GI50 [1]: 4.66 µM | TGI [1]: 16.9 µM | GI50 [2]: 4.52 µM | TGI [2]: 16.1 µM | GI50 [3]: 14.1 µM | TGI [3]: 28 µM | GI50 [10]: 4.3 µM | TGI [10]: 16.1 µM | GI50 [4]: 3.21 µM | TGI [4]: 12 µM | GI50 [5]: 7.26 µM | TGI [5]: 28.5 µM | GI50 [6]: 3.97 µM | TGI [6]: 14.1 µM | GI50 [7]: 3.75 µM | TGI [7]: 15.7 µM | GI50 [8]: 3.37 µM | TGI [8]: 16.9 µM | GI50 [9]: 8.31 µM | TGI [9]: 23.2 µM

O=C(Nc1cccc(-n2ccc3c(NC(=O)c4ccccc4)nccc32)c1)c1cccc(C(F)(F)F)c1
GI50 [1]: 0.0402 µM | TGI [1]: 6.16 µM | GI50 [2]: 0.127 µM | TGI [2]: 1.3 µM | GI50 [3]: 0.0715 µM | TGI [3]: > 100 µM | GI50 [10]: 0.0464 µM | TGI [10]: 10.4 µM | GI50 [4]: 0.0391 µM | TGI [4]: > 38.2 µM | GI50 [5]: 0.0358 µM | TGI [5]: 4.13 µM | GI50 [6]: 0.0364 µM | TGI [6]: 1.46 µM | GI50 [7]: 0.0278 µM | TGI [7]: 0.468 µM | GI50 [8]: 0.0362 µM | GI50 [9]: 0.0533 µM | TGI [9]: 1.29 µM

CNC(=O)c1ccccc1CC1(O)c2ccccc2Oc2ccccc21
GI50 [1]: 19.6 µM | TGI [1]: 59.6 µM | GI50 [2]: 25.9 µM | TGI [2]: > 100 µM | GI50 [10]: 22.8 µM | TGI [10]: > 100 µM | GI50 [4]: 6.78 µM | TGI [4]: > 100 µM | GI50 [5]: 24.6 µM | TGI [5]: > 100 µM | GI50 [6]: 21.8 µM | TGI [6]: > 100 µM | GI50 [7]: 20.7 µM | TGI [7]: > 100 µM | GI50 [8]: 5.08 µM | TGI [8]: 44.5 µM | GI50 [9]: 15 µM | TGI [9]: 83.3 µM

CN1CCN(CC#Cc2cccc(C(=O)c3cnn(-c4ccc(F)cc4)c3N)c2)CC1
GI50 [1]: > 25 µM | TGI [1]: > 25 µM | GI50 [2]: > 25 µM | TGI [2]: > 25 µM | GI50 [10]: > 25 µM | TGI [10]: > 25 µM | GI50 [4]: > 25 µM | TGI [4]: > 25 µM | GI50 [5]: > 25 µM | TGI [5]: > 25 µM | GI50 [6]: > 25 µM | TGI [6]: > 25 µM | GI50 [7]: > 25 µM | TGI [7]: > 25 µM | GI50 [8]: > 25 µM | TGI [8]: > 25 µM | GI50 [9]: > 25 µM | TGI [9]: > 25 µM

CC1(C)N=C(N)N=C(N)N1c1ccc(CCCCc2ccc(S(=O)(=O)F)cc2)cc1
GI50 [1]: 0.467 µM | TGI [1]: 15 µM | GI50 [2]: 7.97 µM | TGI [2]: 20.9 µM | GI50 [10]: 12.2 µM | TGI [10]: 32.4 µM | GI50 [4]: 0.472 µM | TGI [4]: 28.8 µM | GI50 [5]: 0.561 µM | TGI [5]: 19.7 µM | GI50 [6]: 0.373 µM | TGI [6]: 15.8 µM | GI50 [7]: 5.71 µM | TGI [7]: > 54.2 µM | GI50 [8]: 0.425 µM | TGI [8]: 14.2 µM | GI50 [9]: 3.53 µM | TGI [9]: 25 µM

COc1ccc(-c2cc(-c3cc(Cl)ccc3Cl)nc3[nH]c(-c4cc(F)c(Cl)cc4Cl)cc(=O)c23)cc1
GI50 [1]: 21.8 µM | TGI [1]: 61.6 µM | GI50 [2]: 29.6 µM | TGI [2]: > 100 µM | GI50 [3]: 45 µM | TGI [3]: > 100 µM | GI50 [4]: 29.3 µM | TGI [4]: > 100 µM | GI50 [5]: 18.4 µM | TGI [5]: 55.1 µM | GI50 [6]: 9.69 µM | TGI [6]: 24.7 µM | GI50 [7]: 23.8 µM | TGI [7]: > 100 µM | GI50 [8]: 60.9 µM | TGI [8]: > 100 µM | GI50 [9]: 20.7 µM | TGI [9]: 83.8 µM
